Assay results from paper PMC8071358, “Targeting of the Essential acpP, ftsZ, and rne Genes in Carbapenem-Resistant Acinetobacter baumannii by Antisense PNA Precision Antibacterials” (Biomedicines, 2021).

Columns and labels:
A. baumannii ATCC 19606 [1] = assay: BPP-PNA MIC, broth microdilution; type: cell-based, Acinetobacter baumannii; conditions: 37 °C, 18 h
In short: (§1)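 Non-cation-adjusted MHB, inoculum ~5 × 10^5 CFU/mL; BPP-PNA 2-fold series prepared at 16–0.5 µM before addition to wells. 37 °C, 18 h, linear shaking, OD 595 nm every 20 min. ≥2 biological × 2 technical replicates.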

CRAB strain AC2 = assay: BPP-PNA MIC, broth microdilution; type: cell-based, Acinetobacter baumannii; conditions: 37 °C, 18 h
In short: as §1

CRAB strain AC44 = assay: BPP-PNA MIC, broth microdilution; type: cell-based, Acinetobacter baumannii; conditions: 37 °C, 18 h
In short: as §1

A. baumannii SSI1104 = assay: BPP-PNA MIC, broth microdilution; type: cell-based, Acinetobacter baumannii; conditions: 37 °C, 18 h
In short: as §1

CRAB strain AC46 = assay: BPP-PNA MIC, broth microdilution; type: cell-based, Acinetobacter baumannii; conditions: 37 °C, 18 h
P. aeruginosa (PAO1) = assay: BPP-PNA MIC, broth microdilution; type: cell-based, Pseudomonas aeruginosa; conditions: non-target species; MHB without cation (Oxoid)
Method: (§2) MIC values were determined by broth microdilution according to standard protocols with a few modifications. An overnight bacterial cell culture was diluted to approximately 5 × 10^5 CFU/mL in non-cation-adjusted Muller Hinton Broth (MHB). Then, 180 µL bacterial solutions were dispensed into a low-bind 96-well plate (Thermo-Scientific, Roskilde, Denmark) along with 20 µL of BPP-PNA compound (BPP-PNA was serially diluted 2-fold from 16 to 0.5 µM in a 96-well plate). The plate was incubated in a Tecan Genios plate reader (GMI, Minnesota, Ramsey, USA) at 37 °C for 18 h with linear shaking, OD was measured every 20 min at 595 nm. […] The minimum bactericidal concentration (MBC) values were determined by plating 10 µL samples from the wells with no visible turbidity onto Mueller–Hinton agar plates. The MBC is determined the lowest concentration of BPP-PNA that reduces the viability of the initial bacterial inoculum by ≥99.9% (3-log reduction in CFU/mL). A minimum of two independent experiments (biological replicates) of the assay were conducted, and two technical replicates were used in each experiment for each bacterium, compound, and concentration.

E. coli K-12 MG1655 = assay: BPP-PNA MIC, broth microdilution; type: cell-based, Escherichia coli; conditions: non-target species; MHB without cation (Oxoid)
Method: as §2

CRAB strains = assay: BPP-PNA MIC/MBC summarised over the panel of strains; type: cell-based, Acinetobacter baumannii; conditions: for bactericidal concentration relative to MIC: CRAB strains; for MIC (complete growth inhibition) over the CRAB strains tested: several A. baumannii strains
Method: as §2

A. baumannii ATCC 19606 [2] = assay: Time-kill assay; type: cell-based, Acinetobacter baumannii; conditions: ~10^6 CFU/mL, 37 °C, MHB without cation (Sigma)
Method: Bacterial cultures were harvested at 0, 90 min, 3 and 6 h. The content of each well was added to 0.9 mL of MHB and centrifuged at 9300× g for 5 min. Supernatants were removed and the cell pellets were suspended in fresh pre-warmed MHB (100 μL). Tenfold serial dilution were prepared, and 10 μL aliquots were plated on Mueller–Hinton agar and incubated overnight at 37 °C to determine the CFU/mL [17].

HepG2 hepatocytes = assay: HepG2 cell toxicity (CellTiter-Glo, ATP); type: cell-based; conditions: HepG2, 2–4 µM, ATP level
Method: The cell toxicity of selected BPP-PNAs was determined using HepG2 hepatocytes grown in DMEM (low glucose) medium supplemented with 100 U/mL penicillin, 100 µg/mL streptomycin, 1% glutamax, and 10% fetal bovine serum (FBS) (Thermofisher Scientific, Roskilde, Denmark), at 37 °C with 5% CO2. Then, 7000–10,000 cells were seeded in each well of a 96-well plate. After 48 h, the BPP-PNAs were added (six replicates for each concentration), followed by overnight incubation. Total amount of adenosine triphosphate (ATP) was used as a measure of cell viability, according to the CellTiter-Glo luminescent cell viability assay (Promega, Madison, WI, USA) kit. BPP-PNAs concentrations ranged from 2.5 to 20 µM. Potassium dichromate (100 µM) was used as a positive control.

A. baumannii ATCC 19606 [3] = assay: Envelope disruption, Sytox green uptake; type: cell-based, Acinetobacter baumannii; conditions: fluorescence over 90 min, 37 °C
Method: A culture of A. baumannii ATCC 19606 was grown in MHB (195 rpm at 37 °C), until OD595 = 0.4. Then, bacterial cells were pelleted by centrifugation, washed with 0.9% NaCl, and resuspended in MHB at an OD595 = 0.1. Sytox green dye (Invitrogen) was added to the bacterial culture at a concentration of 2 µM followed by incubation for 5 min at 37 °C, followed by addition of the desired amount of BPP–PNA in a 96-well plate format. Fluorescence intensity (λex = 480 nm, λem = 520 nm) was measured every 5 min for 90 min at 37 °C with continuous shaking.

[4] = Oxoid MHB medium, cation adjusted
[5] = Sigma MHB medium without cation

| Substance | MIC, ATCC 19606 (A. baumannii ATCC 19606 [1]; MHB without cation (Oxoid)) [µM] | MIC, SSI 1104 (A. baumannii SSI1104; MHB without cation (Oxoid)) [µM] | MIC, P. aeruginosa (PAO1) (P. aeruginosa (PAO1)) [µM] | MIC, E. coli K-12 MG1655 (E. coli K-12 MG1655) [µM] | concentration with bactericidal activity against carbapenem-resistant A. baumannii (CRAB strains) [µM] | bactericidal concentration relative to MIC (CRAB strains) | MIC (complete growth inhibition) over the CRAB strains tested (CRAB strains) [µM] | reduction in cell viability at MIC50 concentration (HepG2 hepatocytes) | membrane disruption activity (Sytox uptake) (A. baumannii ATCC 19606 [3]; 8 µM) | membrane disruption activity (Sytox uptake) (A. baumannii ATCC 19606 [3]; 2× MIC concentration (4 µM)) | also measured |
| --- | --- | --- | --- | --- | --- | --- | --- | --- | --- | --- | --- |
| H-(KFF)3K-eg1-TGATTTGCCAC-NH2 (antisense; N-terminal (KFF)3K-eg1 peptide, C-terminal amide, backbone not given here, further chemistry not given here) [PNA 5639, anti-acpP peptide-PNA conjugate, match, +1 to +11] | 2 | 2 | >16 | >16 | 4 | 1–2 × MIC | 1 to 2 | no reduction in viability | only a minimal effect | no indication of membrane disruption activity | MIC, ATCC 19606 (A. baumannii ATCC 19606 [1]; [4]): 4 µM; MIC, ATCC 19606 (A. baumannii ATCC 19606 [1]; Sigma MHB medium without cation, ~5 × 10^5 CFU/mL, OD595 < 0.1): 2 µM; MIC, AC2 (CRAB strain AC2; [4]): 4 µM; MIC, AC2 (CRAB strain AC2; [5]): 1 to 2 µM; MIC, AC44 (CRAB strain AC44; [4]): 4 µM; MIC, AC44 (CRAB strain AC44; [5]): 1 µM; MIC, SSI 1104 (A. baumannii SSI1104; [4]): 4 µM; MIC, SSI 1104 (A. baumannii SSI1104; [5]): 2 µM; MIC, AC46 (CRAB strain AC46; [4]): 4 µM; MIC, AC46 (CRAB strain AC46; [5]): 1 µM; decrease of potency in cation adjusted MHB (CRAB strains; cation adjusted MHB against MHB without cation): 1–4 fold; CFU reduction in time-kill (A. baumannii ATCC 19606 [2]; 4 or 8 μM, after 3 h treatment): 4 log |
| H-(KFF)3K-eg1-GAGGCCATGAC-NH2 (antisense; N-terminal (KFF)3K-eg1 peptide, C-terminal amide, backbone not given here, further chemistry not given here) [PNA 5612, anti-ftsZ peptide-PNA conjugate, match, −3 to +8] | 4 | 4 | >16 | >16 | 4 | 1–2 × MIC | 2 to 8 | no reduction in viability | only a minimal effect | no indication of membrane disruption activity | MIC, AC2 (CRAB strain AC2; MHB without cation (Oxoid)): 2 µM; MIC, AC44 (CRAB strain AC44; MHB without cation (Oxoid)): 8 µM; MIC, AC46 (CRAB strain AC46; MHB without cation (Oxoid)): 8 µM; MIC range against 12 multidrug resistant clinical isolates (CRAB strains; 12 CRAB clinical isolates (Table 3)): 2 to 8 µM; match/mismatch ratio of MIC (CRAB strains; 12 multidrug resistant clinical isolates, 5612 vs 5615): 2–8 fold; MIC50 (CRAB strains; over the CRAB and ATCC 19606 strains of Table 3, MHB without cation (Oxoid)): 4 µM; MIC of match PNA lower than mismatch control (mismatch discrimination) (CRAB strains; strains of Table 2 (5612 vs 5615) or Table 4 (5656 vs 5822)): 2–4 fold; CFU reduction in time-kill (A. baumannii ATCC 19606 [2]; 4 μM, after 3 h): more than three order of magnitude CFU reduction |
